pIC50: −log10 of the molar value.
Key:
human TLR8 = target: T1, human TLR8 (Homo sapiens, UniProt Q9NR97); assay: TLR8 inhibition reporter assay (HEK-Blue cells, SEAP reporter, R848 stimulation); assay type: cell-based; details: HEK-Blue cells overexpressing human TLR8, SEAP reporter, R848 15.9 μM; read-out: TLR8 IC50
T1 construct: host or cells: HEK-Blue cells
T1 sequence (Q9NR97 27-1041): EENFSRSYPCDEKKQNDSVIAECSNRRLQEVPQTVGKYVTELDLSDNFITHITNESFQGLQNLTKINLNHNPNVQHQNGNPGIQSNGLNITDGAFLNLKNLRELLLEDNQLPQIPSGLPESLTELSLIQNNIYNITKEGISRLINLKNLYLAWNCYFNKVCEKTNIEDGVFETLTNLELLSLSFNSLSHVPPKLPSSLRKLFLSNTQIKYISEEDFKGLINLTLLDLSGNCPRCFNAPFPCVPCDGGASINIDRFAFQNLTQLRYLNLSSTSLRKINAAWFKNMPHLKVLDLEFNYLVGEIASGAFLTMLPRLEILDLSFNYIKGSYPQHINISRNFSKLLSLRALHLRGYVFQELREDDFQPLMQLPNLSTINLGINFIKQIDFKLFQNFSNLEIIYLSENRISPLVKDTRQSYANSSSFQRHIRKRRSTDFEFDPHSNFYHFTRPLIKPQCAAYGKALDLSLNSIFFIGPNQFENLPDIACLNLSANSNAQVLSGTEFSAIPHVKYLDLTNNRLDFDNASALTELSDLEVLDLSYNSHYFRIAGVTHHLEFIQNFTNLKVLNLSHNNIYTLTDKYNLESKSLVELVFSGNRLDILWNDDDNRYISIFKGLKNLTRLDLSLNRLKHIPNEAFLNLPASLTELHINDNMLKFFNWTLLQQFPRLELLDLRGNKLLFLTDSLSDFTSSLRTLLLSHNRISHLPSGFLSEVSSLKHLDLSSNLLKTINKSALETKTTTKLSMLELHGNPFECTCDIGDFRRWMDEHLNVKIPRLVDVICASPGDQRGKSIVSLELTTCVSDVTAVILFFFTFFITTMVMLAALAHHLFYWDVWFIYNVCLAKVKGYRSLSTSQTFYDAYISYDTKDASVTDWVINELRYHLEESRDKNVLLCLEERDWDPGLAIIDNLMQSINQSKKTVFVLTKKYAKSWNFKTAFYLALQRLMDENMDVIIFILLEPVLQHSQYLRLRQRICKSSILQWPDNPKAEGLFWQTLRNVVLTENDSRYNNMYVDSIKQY
Protocol: (§1) TLR7/8/9 Inhibition Reporter Assays
(§2) HEK-Blue™-cells (Invivogen) overexpressing human TLR7, TLR8 or TLR9 receptors were used for screening inhibitors of these receptors using an inducible SEAP (secreted embryonic alkaline phosphatase) reporter gene under the control of the IFN-β minimal promoter fused to five NF-κB and AP-1-binding sites. Briefly, cells are seeded into Greiner 384 well plates (15000 cells per well for TLR7, 20,000 for TLR8 and 25,000 for TLR9) and then treated with test compounds in DMSO to yield a final dose response concentration range of 0.05 nM-50 μM. After a 30 minute compound pre-treatment at room temperature, the cells are then stimulated with a TLR7 ligand (gardiquimod at a final concentration of 7.5 μM), TLR8 ligand (R848 at a final concentration of 15.9 μM) or TLR9 ligand (ODN2006 at a final concentration of 5 nM) to activate NF-κB and AP-1 which induce the production of SEAP. After a 22 hour incubation at 37° C., 5% CO2, SEAP levels are determined with the addition of HEK-Blue™ Detection reagent (Invivogen), a cell culture medium that allows for detection of SEAP, according to manufacturer's specifications. The percent inhibition is determined as the % reduction in the HEK-Blue signal present in wells treated with agonist plus DMSO alone compared to wells treated with a known inhibitor.

human TLR7 = target: T2, human TLR7 (Homo sapiens, UniProt Q9NYK1); assay: TLR7 inhibition reporter assay (HEK-Blue cells, SEAP reporter, gardiquimod stimulation); assay type: cell-based; details: HEK-Blue cells overexpressing human TLR7, SEAP reporter, gardiquimod 7.5 μM; read-out: TLR7 IC50
T2 construct: host or cells: HEK-Blue cells
T2 sequence (Q9NYK1 27-1049): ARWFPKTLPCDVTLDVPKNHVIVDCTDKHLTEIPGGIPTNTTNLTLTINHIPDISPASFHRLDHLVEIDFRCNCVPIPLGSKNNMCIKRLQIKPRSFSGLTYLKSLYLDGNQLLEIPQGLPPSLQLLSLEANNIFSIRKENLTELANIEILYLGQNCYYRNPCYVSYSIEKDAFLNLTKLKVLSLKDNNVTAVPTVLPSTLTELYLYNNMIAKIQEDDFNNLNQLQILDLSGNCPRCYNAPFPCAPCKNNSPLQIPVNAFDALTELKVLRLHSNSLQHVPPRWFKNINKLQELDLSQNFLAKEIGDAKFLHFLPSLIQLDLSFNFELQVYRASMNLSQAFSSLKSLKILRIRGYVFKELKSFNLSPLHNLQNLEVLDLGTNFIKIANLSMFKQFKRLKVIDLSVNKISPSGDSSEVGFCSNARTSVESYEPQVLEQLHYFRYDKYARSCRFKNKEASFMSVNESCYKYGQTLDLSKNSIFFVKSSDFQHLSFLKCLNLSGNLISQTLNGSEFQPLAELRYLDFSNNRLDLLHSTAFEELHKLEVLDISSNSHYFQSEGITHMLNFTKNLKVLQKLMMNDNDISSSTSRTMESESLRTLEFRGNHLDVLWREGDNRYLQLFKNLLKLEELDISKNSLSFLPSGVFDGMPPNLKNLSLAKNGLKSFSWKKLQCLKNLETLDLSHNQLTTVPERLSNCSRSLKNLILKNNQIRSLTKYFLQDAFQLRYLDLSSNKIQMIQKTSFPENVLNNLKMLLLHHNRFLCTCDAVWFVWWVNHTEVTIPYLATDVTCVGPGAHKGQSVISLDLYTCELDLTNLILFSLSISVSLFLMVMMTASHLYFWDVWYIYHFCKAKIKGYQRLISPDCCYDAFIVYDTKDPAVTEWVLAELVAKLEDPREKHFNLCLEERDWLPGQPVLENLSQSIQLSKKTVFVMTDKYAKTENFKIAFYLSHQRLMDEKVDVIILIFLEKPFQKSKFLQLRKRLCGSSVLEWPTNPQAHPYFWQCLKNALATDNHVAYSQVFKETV
Protocol: as §1, §2

SMILES	pIC50 (human TLR8)	pIC50 (human TLR7)
CC(C)c1c(-c2cn(C)c3ncccc23)[nH]c2sc(C3CCN(CC(N)=O)CC3)nc12 [Example 31, 2-(4-(6-isopropyl-5-(1-methyl-1H-pyrrolo[2,3-b]pyridin-3-yl)-4H-pyrrolo[3,2-d]thiazol-2-yl)piperidin-1-yl) acetamide]	8.52	8.40
CC(C)c1c(-c2cn(C)c3ncccc23)[nH]c2sc(C3CCN(C(=O)CN(C)C)CC3)nc12 [Example 32, 2-(dimethylamino)-1-(4-(6-isopropyl-5-(1-methyl-1H-pyrrolo[2,3-b]pyridin-3-yl)-4H-pyrrolo[3,2-d]thiazol-2-yl)piperidin-1-yl)ethan-1-one]	7.80	8.47
CC(C)c1c(-c2cn(C)c3ncccc23)[nH]c2sc(C3CCN(CCS(C)(=O)=O)CC3)nc12 [Example 33, 6-isopropyl-5-(1-methyl-1H-pyrrolo[2,3-b]pyridin-3-yl)-2-(1-(2-(methylsulfonyl)ethyl)piperidin-4-yl)-4H-pyrrolo[3,2-d]thiazole]	8.82	8.41
CC(C)c1c(-c2cn(C)c3ncccc23)[nH]c2sc(C3CCN(C4COC4)CC3)nc12 [Example 34, 6-isopropyl-5-(1-methyl-1H-pyrrolo[2,3-b]pyridin-3-yl)-2-(1-(oxetan-3-yl)piperidin-4-yl)-4H-pyrrolo[3,2-d]thiazole]	8.31	8.35
Cc1c(-c2[nH]c3sc(C4CCN(C5COC5)CC4)nc3c2C(C)C)cn2ncnc2c1C [Example 43, 5-(7,8-dimethyl-[1,2,4]triazolo[1,5-a]pyridin-6-yl)-6-isopropyl-2-(1-(oxetan-3-yl)piperidin-4-yl)-4H-pyrrolo[3,2-d]thiazole]	8.28	8.60
Cc1c(-c2[nH]c3sc(C4CCN(CCS(C)(=O)=O)CC4)nc3c2C(C)C)cn2ncnc2c1C [Example 55, 5-(7,8-dimethyl-[1,2,4]triazolo[1,5-a]pyridin-6-yl)-6-isopropyl-2-(1-(2-(methylsulfonyl)ethyl)piperidin-4-yl)-4H-pyrrolo[3,2-d]thiazole]	8.94	8.52
CNC(=O)CN1CCC(c2nc3c(C(C)C)c(-c4cn5ncnc5c(C)c4C)[nH]c3s2)CC1 [Example 56, 2-(4-(5-(7,8-dimethyl-[1,2,4]triazolo[1,5-a]pyridin-6-yl)-6-isopropyl-4H-pyrrolo[3,2-d]thiazol-2-yl)piperidin-1-yl)-N-methylacetamide]	8.46	8.36
CC(=O)N1CCC(c2nc3c(C(C)C)c(-c4cn5ncnc5c(C)c4C)[nH]c3s2)CC1 [Example 59, 1-(4-(5-(7,8-dimethyl-[1,2,4]triazolo[1,5-a]pyridin-6-yl)-6-isopropyl-4H-pyrrolo[3,2-d]thiazol-2-yl)piperidin-1-yl)ethan-1-one]	7.33	8.23
Cc1c(-c2[nH]c3sc(C4CCN(C5COC5)CC4)nc3c2C(C)C)cn(C)c(=O)c1C [Example 60, 5-(6-isopropyl-2-(1-(oxetan-3-yl)piperidin-4-yl)-4H-pyrrolo[3,2-d]thiazol-5-yl)-1,3,4-trimethylpyridin-2(1H)-one]	7.55	7.44
Cc1c(-c2[nH]c3sc(C4CCN(CCS(C)(=O)=O)CC4)nc3c2C(C)C)cn(C)c(=O)c1C [Example 61, 5-(6-isopropyl-2-(1-(2-(methylsulfonyl)ethyl)piperidin-4-yl)-4H-pyrrolo[3,2-d]thiazol-5-yl)-1,3,4-trimethylpyridin-2(1H)-one]	8.27	7.64
Cc1c(-c2[nH]c3sc(C4CCN(CC(=O)N(C)C)CC4)nc3c2C(C)C)cn(C)c(=O)c1C [Example 62, 2-(4-(6-isopropyl-5-(1,4,5-trimethyl-6-oxo-1,6-dihydropyridin-3-yl)-4H-pyrrolo[3,2-d]thiazol-2-yl)piperidin-1-yl)-N,N-dimethylacetamide]	7.65	7.05
CNC(=O)CN1CCC(c2nc3c(C(C)C)c(-c4cn(C)c(=O)c(C)c4C)[nH]c3s2)CC1 [Example 63, 2-(4-(6-isopropyl-5-(1,4,5-trimethyl-6-oxo-1,6-dihydropyridin-3-yl)-4H-pyrrolo[3,2-d]thiazol-2-yl)piperidin-1-yl)-N-methylacetamide]	7.84	7.61
Cc1c(-c2[nH]c3sc(C4CCN(CC(N)=O)CC4)nc3c2C(C)C)cn(C)c(=O)c1C [Example 64, 2-(4-(6-isopropyl-5-(1,4,5-trimethyl-6-oxo-1,6-dihydropyridin-3-yl)-4H-pyrrolo[3,2-d]thiazol-2-yl)piperidin-1-yl)acetamide]	7.98	7.49
Cc1c(-c2[nH]c3sc(N4CCN(CCS(C)(=O)=O)CC4)nc3c2C(C)C)cn2ncnc2c1C [Example 282, 5-(7,8-dimethyl-[1,2,4]triazolo[1,5-a]pyridin-6-yl)-6-isopropyl-2-(4-(2-(methylsulfonyl)ethyl)piperazin-1-yl)-4H-pyrrolo[3,2-d]thiazole]	8.27	7.53
Cc1c(-c2[nH]c3sc(N4CCN(CC(=O)N(C)C)CC4)nc3c2C(C)C)cn2ncnc2c1C [Example 283, 2-(4-(5-(7,8-dimethyl-[1,2,4]triazolo[1,5-a]pyridin-6-yl)-6-isopropyl-4H-pyrrolo[3,2-d]thiazol-2-yl)piperazin-1-yl)-N,N-dimethylacetamide]	8.77	7.73
CNC(=O)CN1CCN(c2nc3c(C(C)C)c(-c4cn5ncnc5c(C)c4C)[nH]c3s2)CC1 [Example 284, 2-(4-(5-(7,8-dimethyl-[1,2,4]triazolo[1,5-a]pyridin-6-yl)-6-isopropyl-4H-pyrrolo[3,2-d]thiazol-2-yl)piperazin-1-yl)-N-methylacetamide]	8.29	8.02
Cc1cc(-c2[nH]c3sc(N4CCN(CC(C)(C)O)C[C@H]4C)nc3c2C(C)C)cn2ncnc12 [Example 359, (R)-1-(4-(6-isopropyl-5-(8-methyl-[1,2,4]triazolo[1,5-a]pyridin-6-yl)-4H-pyrrolo[3,2-d]thiazol-2-yl)-3-methylpiperazin-1-yl)-2-methylpropan-2-ol]	–	5.95

— patent publication US20230139171A1 (SITA Information Networking Computing UK Limited, priority 2019, published 2023)
